Four compounds from ChEMBL document CHEMBL6103653, “Alstolarsines A-E, Indoline Alkaloids with Two Different Carbon Skeletons from Alstonia scholaris” (J Nat Prod, 2025) can be followed below.

SMILES strings stand for the structures.

One assay is filed under the species Homo sapiens. Nature of the assay: Inhibition of DRAK2 autophosphorylation (unknown origin) at 20 microg/ml by ADP-Glo assay relative to control. The conditions noted are these: dose 20.0 µg/ml.
For assay [1], the target named is T1, ATP-citrate synthase (Homo sapiens) (UniProt P53396).
T1 sequence (whole entry): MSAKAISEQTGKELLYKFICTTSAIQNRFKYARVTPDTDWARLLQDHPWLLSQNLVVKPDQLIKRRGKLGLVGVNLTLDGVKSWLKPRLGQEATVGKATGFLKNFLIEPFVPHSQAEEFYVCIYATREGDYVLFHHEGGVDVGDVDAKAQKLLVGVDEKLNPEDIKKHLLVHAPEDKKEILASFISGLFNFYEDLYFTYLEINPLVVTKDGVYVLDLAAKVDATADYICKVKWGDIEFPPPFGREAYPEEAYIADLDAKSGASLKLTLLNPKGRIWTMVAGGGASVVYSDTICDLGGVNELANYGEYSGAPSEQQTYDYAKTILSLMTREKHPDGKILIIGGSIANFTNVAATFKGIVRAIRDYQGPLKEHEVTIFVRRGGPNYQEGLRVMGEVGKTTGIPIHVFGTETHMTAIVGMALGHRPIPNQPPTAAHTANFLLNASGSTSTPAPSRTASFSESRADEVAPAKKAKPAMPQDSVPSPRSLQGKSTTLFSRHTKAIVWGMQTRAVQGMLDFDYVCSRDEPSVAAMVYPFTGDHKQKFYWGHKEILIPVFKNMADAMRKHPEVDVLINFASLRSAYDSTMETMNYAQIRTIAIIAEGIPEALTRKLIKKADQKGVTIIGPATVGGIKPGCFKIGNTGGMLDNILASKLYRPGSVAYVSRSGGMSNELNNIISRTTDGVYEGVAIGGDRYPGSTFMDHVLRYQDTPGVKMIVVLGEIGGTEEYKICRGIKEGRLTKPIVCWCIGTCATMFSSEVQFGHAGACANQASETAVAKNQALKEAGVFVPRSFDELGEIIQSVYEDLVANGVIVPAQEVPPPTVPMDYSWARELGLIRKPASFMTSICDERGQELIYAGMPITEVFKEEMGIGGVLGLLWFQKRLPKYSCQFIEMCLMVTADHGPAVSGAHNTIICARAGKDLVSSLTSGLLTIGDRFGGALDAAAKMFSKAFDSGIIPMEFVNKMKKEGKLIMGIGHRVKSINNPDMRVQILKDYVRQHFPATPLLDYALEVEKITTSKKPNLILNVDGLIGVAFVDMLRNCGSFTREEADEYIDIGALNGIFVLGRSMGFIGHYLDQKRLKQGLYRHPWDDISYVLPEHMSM
Nature of the assay: Inhibition of ATP citrate lyase (unknown origin) at 20 microg/ml by ADP-Glo assay relative to control. The conditions noted are these: dose 20.0 µg/ml.

For the compound `C/C=C1/C[N@@+]2(C)CC[C@@]34c5ccccc5N[C@]32C(=O)[C@@H]2[C@H](C)OC[C@@]4(C(=O)[O-])[C@H]12`, the inhibition in the assay filed under Homo sapiens is 16.5%; in assay [1], 5.1%.
For the compound `C/C=C1/C[N@@+]2(C)CC[C@@]34c5ccccc5N[C@]32C(=O)[C@]2(C)OC[C@@]4(C(=O)[O-])[C@H]12`, the inhibition in the assay listed under Homo sapiens stood at 4.5%; in assay [1], 5.5%.
The matching figures for `C/C=C1/C[N@@+]2(C)CC[C@@]34c5ccccc5N[C@]32C(=O)[C@H]2[C@@H]1[C@]4(C(=O)[O-])CO[C@@H]2C`: 49.2% and 17%.
The matching figures for `C/C=C1/C[N@@+]2(C)CC[C@@]34c5ccccc5N[C@]32C(=O)[C@@H]2COC[C@@]4(C(=O)[O-])[C@H]12`: 47.7% and 49.2%.
